The values that follow come from patent US12584915B2, “Glyphosate biosensor” (priority 2019, dated 2026).

The target of one experiment is T1, WT (SEQ ID NO: 5) EcPhnD (Escherichia coli, UniProt P16682, N152C).
T1 construct: made in house; host or cells: E. coli BL21 DE3
As to the kind of experiment: biochemical. The format is binding, E. coli. The protocol:
(§1) Fluorescent screening and data Analysis. All fluorescence measurements were collected on a SpectraM2 fluorescence spectrometer at 22° C. Acrylodan excitation was set-up at 359 nm and an emission sweep was collected between 400-600 nm. Coumarin conjugated PhnD was excited at 419 nm and an emission spectrum was collected between 430-520 nm. Titrations were performed by increasing concentration of ligand and monitoring the changes in fluorescence intensity at 465 nm for coumarin conjugates or the ratio of fluorescence at 570 nm/450 nm. Error bars represent the standard deviation from three individual titrations. The fluorescence intensity at each wavelength was measured three times for each ligand concentration and the average of the reading was calculated. The ratio of the two averages from each of the three titrations was used to calculate the standard deviation. Kd values were determined by fitting the titration data to the following single binding isotherm equation using Kaleidagraph, where F is the observed fluorescence at a certain ligand concentration [L], Fo is the fluorescence in the absence of ligand, and Fmax is the fluorescence at saturating ligand concentrations.

Experiment [1] addresses T2, PND177NΔ (SEQ ID NO: 2) (Escherichia coli, UniProt P16682, E203N/N152C).
T2 construct: made in house; host or cells: E. coli BL21 DE3
As to the kind of experiment: biochemical. Type of experiment: binding, E. coli. The note with it: for affinity of the sensor for the ligand, in words: PhnD-E177NΔ sensor.
Excerpt: (§2) To determine the Kd values, the ratio of fluorescence between two wavelengths (570 nm/450 nm) was monitored as a function of increasing ligand concentrations (FIGS. 2 and 3). The titration data were fit to a single binding isotherm equation (eq. 1), where R is defined as the fluorescence ratio at a given ligand concentration [L], R0 is the fluorescence ratio in the absence of ligand and Rmax is the fluorescence ratio at saturating ligand concentrations.
as §1

In experiment [2] the test system is PND177NΔ (SEQ ID NO: 2). The experiment in a line: biochemical. The conditions noted are these: PhnD-E177NΔ sensor vs wild type. The format is binding, E. coli.
Excerpt: as §2, §1

The target of another experiment is EcPhnD (Escherichia coli, UniProt P16682). The note with it: cited from earlier work.
Sequence of EcPhnD (P16682 27-338): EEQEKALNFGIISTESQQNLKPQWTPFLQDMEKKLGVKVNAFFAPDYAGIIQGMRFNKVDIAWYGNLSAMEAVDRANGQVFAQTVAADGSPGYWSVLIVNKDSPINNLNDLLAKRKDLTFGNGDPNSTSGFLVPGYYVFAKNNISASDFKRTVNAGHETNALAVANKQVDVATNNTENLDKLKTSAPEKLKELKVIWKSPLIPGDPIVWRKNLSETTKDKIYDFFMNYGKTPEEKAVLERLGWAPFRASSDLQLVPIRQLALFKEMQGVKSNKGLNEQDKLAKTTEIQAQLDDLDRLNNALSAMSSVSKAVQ
The nature of experiment [3]: Fluorescence titration of acrylodan-labelled PhnD variants with glyphosate. Type of experiment: binding. From the text: The fluorescent reporter group attached to PhnD changes its emission properties in response to glyphosate binding which can be observed using fluorescent spectroscopy. This allows detection of a ligand (in this case glyphosate), where fluorescence emission can be used to determine the concentration of glyphosate in solution. Two main types of data were collected, Apo vs Saturated spectra showing fluorescence emission with and without glyphosate (not shown), and the other type was titrations done with increasing glyphosate concentrations to determine the Kd value for each mutant for glyphosate.
The purified, fluorescently-labeled mutants were tested for their ability to bind to glyphosate. Kd values were determined by monitoring the changes in fluorescence as a function of increasing ligand concentrations. Table 1 provides dissociation constants (Kd values) of different PhnD variants for glyphosate. All mutants contain a cysteine at position 126 for attachment of acrylodan. Values were obtained by monitoring fluorescence change as a function of ligand concentration using eq. 1.
Importantly, the change in fluorescence associated with ligand binding is ratiometric with a larger decrease in emission at lower wavelengths. To determine the Kd values, the ratio of fluorescence between two wavelengths (570 nm/450 nm) was monitored as a function of increasing ligand concentrations (FIGS. 2 and 3). The titration data were fit to a single binding isotherm equation (eq. 1), where R is defined as the fluorescence ratio at a given ligand concentration [L], R0 is the fluorescence ratio in the absence of ligand and Rmax is the fluorescence ratio at saturating ligand concentrations.
Fluorescent screening and data Analysis. All fluorescence measurements were collected on a SpectraM2 fluorescence spectrometer at 22° C. […] Titrations were performed by increasing concentration of ligand and monitoring the changes in fluorescence intensity at 465 nm for coumarin conjugates or the ratio of fluorescence at 570 nm/450 nm. […]

Setting [4] is: WT (SEQ ID NO: 5), read-out: WT Kd.
[5] abbreviates: PND177NΔ (SEQ ID NO: 2), acrylodan, ratio 570 nm/450 nm, read-out: PND177NΔ Kd.

Read-outs that look alike come from different tables or passages of the source.

T1 sequence (P16682 27-338 N152C): as the sequence (P16682 27-338) above, with N126C counted along it

One may read the Kd as the concentration at which binding is half-saturated. As to `NCCP(=O)(O)O` [2-Aminoethyl Phosphate (2-AEP), 2-Aminoethyl Phosphonate], the Kd at WT (SEQ ID NO: 5) EcPhnD (setting [4]) was 0.002 µM; at PND177NΔ (SEQ ID NO: 2) [1] (setting [5]) it was 5.61 µM; on EcPhnD (natural ligand, background statement, read-out: Kd of PhnD for 2-AEP) it was roughly 0.005 µM. In addition, the “reduction of affinity compared to the wild-type protein” value in the experiment on PND177NΔ (SEQ ID NO: 2) [2] is given as “more than 3 orders of magnitude”.
For the molecule `O=C(O)CNCP(=O)(O)O` [Glyphosate], the Kd on WT (SEQ ID NO: 5) EcPhnD is 650 µM; on PND177NΔ (SEQ ID NO: 2) [1], 4.29 µM; at EcPhnD (previous research, read-out: Kd of EcPhnD for glyphosate), roughly 650 µM.
Regarding Phosphate, the Kd at WT (SEQ ID NO: 5) EcPhnD (setting [4]) stood at 260 µM; on PND177NΔ (SEQ ID NO: 2) [1] (setting [5]), 26.1 µM. On PND177NΔ (SEQ ID NO: 2) [1], the “affinity of the sensor for the ligand, in words” value is recorded as “moderate affinities”.
The corresponding values for Arsenate are 230 µM, 10.7 µM and “moderate affinities”.

B1: E177N (protein)
chain: EEQEKALNFGIISTESQQNLKPQWTPFLQDMEKKLGVKVNAFFAPDYAGIIQGMRFNKVDIAWYGNLSAMEAVDRANGQVFAQTVAADGSPGYWSVLIVNKDSPINNLNDLLAKRKDLTFGNGDPCSTSGFLVPGYYVFAKNNISASDFKRTVNAGHETNALAVANKQVDVATNNTNNLDKLKTSAPEKLKELKVIWKSPLIPGDPIVWRKNLSETTKDKIYDFFMNYGKTPEEKAVLERLGWAPFRASSDLQLVPIRQLALFKEMQGVKSNKGLNEQDKLAKTTEIQAQLDDLDRLNNALSAMSSVSKAVQ
For the molecule B1, the “fold increase in affinity for glyphosate over the wild-type protein” value in experiment [3] is 80 fold.

B2: E177NΔ (protein)
chain: EEQEKALNFGIISTESQQNLKPQWTPFLQDMEKKLGVKVNAFFAPDYAGIIQGMRFNKVDIAWYGNLSAMEAVDRANGQVFAQTVAADGSPGYWSVLIVNKDSPINNLNDLLAKRKDLTFGNGDPCSTSGFLVPGYYVFAKNNISASDFKRTVNAGHETNALAVANKQVDVATNNTNNLDKLKTSAPEKLKELKVIWKSPLIPGSPIVWRKNLSETTKDKIYDFFMNYGKTPEEKAVLERLGWAPFRASSDLQLVPIRQLALFKEMQGVKSNKGLNEQDKLAKTTEIQAQLDDLDRLNNALSA
Consider B2, for which the “fold increase in affinity for glyphosate over the wild-type protein” value in experiment [3] was “over 150 fold”. Moreover, in experiment [3] (saturating glyphosate (FIG. 6)), the “fluorescence change associated with glyphosate binding” value is reported as “large decrease in fluorescence”.
